Data published in patent publication US20230226198A1, “Artemisinin Derivatives” (DA ZEN THERANOSTICS, INC., priority 2019, published 2023).

Test system: human prostate tumors (22Rv1 cells)
Experiment: Human prostate tumor model, subcutaneous 22Rv1 tumors in nude mice
Format: in vivo, athymic nude mice
Protocol: Example 4 A/B: Human cancer cells are subcutaneously (s.c.) implanted (1×10^6) into 4- to 6-week-old athymic nude mice (National Cancer Institute). When tumor sizes in the mice reach between 1 and 6 mm in diameter as assessed by in vivo bioluminescence imaging or by palpation, mice are injected once or multiple times i.p. with the drug, e.g. DZ3a, DHA or o THAD. For mice bearing 22Rv1 tumors, DZ3a (2, 4, 8 and 16 mg/kg) or DHA (e.g. 4.7 mg/kg) is injected twice a week for 5.5 weeks. Whole body optical imaging is taken at 24 hours or as indicated using a Kodak Imaging Station 4000 MM equipped with fluorescent filter sets (excitation/emission, 800:850 nm), with a field of view of 120 mm in diameter, a frequency rate for NIR excitation light of 2 mW/cm^2, and the following camera settings; maximal gain, 2-2 binning, 1,024×1,024 pixel resolution, exposure time of 5 seconds. Live mice are alternatively/additionally imaged by an Olympus OV100 Whole Mouse Imaging System (excitation, 762 nm; emission, 800 nm; Olympus Corp.), containing a MT-20 light source (Olympus Biosystems) and DP70 CCD camera (Olympus). Before imaging, mice are anesthetized with isoflurane (2.5 units), and maintained in an anesthetized state during imaging. Alternatively, a THAD may be compared to DZ3a. […]

C[C@@H]1CC[C@H]2[C@@H](C)C(OC(=O)CCCCCN3/C(=C/C=C4\CCCC(/C=C/C5=[N+](CCCCS(=O)(=O)[O-])c6ccccc6C5(C)C)=C4Cl)C(C)(C)c4ccccc43)O[C@@H]3OC4(C)CC[C@@H]1[C@]32OO4 (stereo in doubt) [DZ3a]
inhibition of tumor volume increase (DZ-DHA-monoester 2 to 16 mg/kg, DHA 4.7 mg/kg, i.p. twice a week for 5.5 weeks, versus vehicle): similarly inhibit increase in tumor volume compared to the neg. control
tumor inhibition, lowest dose versus higher doses (about 2 mg/kg versus higher doses up to 16 mg/kg): shows better tumor inhibition than other higher doses
